Source: publication PMC11823630, “In vitro potentiation of tetracyclines in Pseudomonas aeruginosa by RW01, a new cyclic peptide” (Antimicrobial Agents and Chemotherapy, 2024)
In brackets after ≈: the same amount, converted by molar mass.

How the values were obtained:
P. aeruginosa 125A = test: MIC, CLSI broth microdilution in BD Phoenix AST Broth; assay type: cell-based, Pseudomonas aeruginosa; settings: Pseudomonas aeruginosa; strain 125A; agent alone; 37°C, 18–22 h; three biological replicates
Procedure: (§1) MIC for RW01 was also tested.
(§2) FIC of RW01 (FICRW01)=MIC of RW01 in combination/MIC of RW01 alone,FIC of antibiotic (FICATB)=MIC of ATB in combination/MIC of ATB alone,FICI=FICRW01 +FICATB.
(§3) FICI was interpreted as follows: synergistic effect if FICI is ≤0.5; additive effect if 0.5 < FICI ≤ 1.0; indifferent effect if 1.0 < FICI ≤ 2.0; and finally, antagonistic effect if FICI is >2.0. The average FICI considering the antibiotic MIC (no growth in any of the replicates) at different concentrations of RW01 was calculated ([28]).

P. aeruginosa 125B = test: as above; assay type: cell-based, Pseudomonas aeruginosa; settings: Pseudomonas aeruginosa; strain 125B; agent alone; 37°C, 18–22 h; three biological replicates
Procedure: as §1, §2, §3

P. aeruginosa 41A = test: as above; assay type: cell-based, Pseudomonas aeruginosa; settings: Pseudomonas aeruginosa; strain 41A; agent alone; 37°C, 18–22 h; three biological replicates
Procedure: as §1, §2, §3

P. aeruginosa 41B = test: as above; assay type: cell-based, Pseudomonas aeruginosa; settings: Pseudomonas aeruginosa; strain 41B; agent alone; 37°C, 18–22 h; three biological replicates
Procedure: as §1, §2, §3

P. aeruginosa PAO1 = test: as above; assay type: cell-based, Pseudomonas aeruginosa; settings: Pseudomonas aeruginosa, PAO1, strain PAO1; agent alone; 37°C, 18–22 h; three biological replicates; read-out: MIC
Procedure: as §1, §2, §3

P. aeruginosa PAOUW = test: as above; assay type: cell-based, Pseudomonas aeruginosa; settings: Pseudomonas aeruginosa, strain PAOUW; agent alone; 37°C, 18–22 h; three biological replicates; read-out: MIC
Procedure: as §1, §2, §3

P. aeruginosa PAOUW∆oprF = test: as above; assay type: cell-based, Pseudomonas aeruginosa; settings: Pseudomonas aeruginosa, strain PAOUWΔoprF; agent alone; 37°C, 18–22 h; three biological replicates
Procedure: as §1, §2, §3

P. aeruginosa PAOΔmexR = test: as above; assay type: cell-based, Pseudomonas aeruginosa; settings: Pseudomonas aeruginosa
Procedure: as §1, §2, §3

P. aeruginosa PAOΔmexZ = test: as above; assay type: cell-based, Pseudomonas aeruginosa; settings: Pseudomonas aeruginosa, strain PAOΔmexZ; agent alone; 37°C, 18–22 h; three biological replicates
Procedure: as §1, §2, §3

P. aeruginosa PAOΔoprM = test: as above; assay type: cell-based, Pseudomonas aeruginosa; settings: Pseudomonas aeruginosa
Procedure: as §1, §2, §3

P. aeruginosa PAO1, WT = test: MIC, Sensititre custom plate; assay type: cell-based; settings: Pseudomonas aeruginosa, PAO1, read-out: MIC, Sensititre
Procedure: (§4) Selection of resistant mutants was performed for minocycline with and without RW01 in three independent replicates for wild-type P. aeruginosa reference strain PAO1. Tubes containing Mueller-Hinton broth (MHB) were inoculated and incubated for 24 h at 37°C. Afterward, 1/100 dilution of each tube was incubated at 37°C in MHB to late-exponential growth phase, measured by spectrophotometry at OD600. […] A control plate without antibiotic was included as inoculum control. After overnight incubation, colony counting of each treatment was performed to analyze the generation of resistant population. The mutant prevention concentration (MPC) was defined as the lowest concentration of antibiotic yielding no growth of resistant mutants. Selected mutants were checked for susceptibility profiles by using a Sensititre custom plate (Thermo Fisher Scientific, Massachusetts, USA) for Gram-negative bacteria, following the manufacturer’s instructions.

[1] = tested on: PAO1 mutant MIN16_1, nalD(T43P); test: MIC, Sensititre custom plate; assay type: cell-based; settings: Pseudomonas aeruginosa, PAO1, read-out: MIC, Sensititre
Procedure: as §4

[2] = tested on: PAO1 mutant MIN16_2, nalC(aa9∆4), pilQ(nt46∆1); test: MIC, Sensititre custom plate; assay type: cell-based; settings: Pseudomonas aeruginosa, PAO1, read-out: MIC, Sensititre
Procedure: as §4

[3] = tested on: PAO1 mutant MIN16_3, nfxB(nt79∆14), pilB(N349K); test: MIC, Sensititre custom plate; assay type: cell-based; settings: Pseudomonas aeruginosa, PAO1, read-out: MIC, Sensititre
Procedure: as §4

[4] = tested on: PAO1 mutant MIN16_4, nalC(T50P), pilM(Q62X); test: MIC, Sensititre custom plate; assay type: cell-based; settings: Pseudomonas aeruginosa, PAO1, read-out: MIC, Sensititre
Procedure: as §4

[5] = tested on: PAO1 mutant MIN1_RW01_1, pmrB(Y98N); test: MIC, Sensititre custom plate; assay type: cell-based; settings: Pseudomonas aeruginosa, PAO1, read-out: MIC, Sensititre
Procedure: as §4

[6] = tested on: PAO1 mutant MIN1_RW01_2, mexR(G58E), pilB(G326D), hutC(Y181X); test: MIC, Sensititre custom plate; assay type: cell-based; settings: Pseudomonas aeruginosa, PAO1, read-out: MIC, Sensititre
Procedure: as §4

[7] = tested on: PAO1 mutant MIN1_RW01_3, pmrB(V215L); test: MIC, Sensititre custom plate; assay type: cell-based; settings: Pseudomonas aeruginosa, PAO1, read-out: MIC, Sensititre
Procedure: as §4

[8] = tested on: PAO1 mutant MIN2_RW01_1, pmrB(V215L); test: MIC, Sensititre custom plate; assay type: cell-based; settings: Pseudomonas aeruginosa, PAO1, read-out: MIC, Sensititre
Procedure: as §4

[9] = tested on: PAO1 mutant MIN2_RW01_2, pmrB(M292T); test: MIC, Sensititre custom plate; assay type: cell-based; settings: Pseudomonas aeruginosa, PAO1, read-out: MIC, Sensititre
Procedure: as §4

[10] = tested on: PAO1 mutant MIN2_RW01_3, parS(V152A); test: MIC, Sensititre custom plate; assay type: cell-based; settings: Pseudomonas aeruginosa, PAO1, read-out: MIC, Sensititre
Procedure: as §4

[11] = tested on: PAO1 mutant MIN2_RW01_4, pmrB(M292T); test: MIC, Sensititre custom plate; assay type: cell-based; settings: Pseudomonas aeruginosa, PAO1, read-out: MIC, Sensititre
Procedure: as §4

[12] = tested on: PAO1 mutant MIN32_1, mexR(R63H), pilB(N349K), PA0646(V316G); test: MIC, Sensititre custom plate; assay type: cell-based; settings: Pseudomonas aeruginosa, PAO1, read-out: MIC, Sensititre
Procedure: as §4

[13] = tested on: PAO1 mutant MIN4_RW01_1, pmrB(R429H); test: MIC, Sensititre custom plate; assay type: cell-based; settings: Pseudomonas aeruginosa, PAO1, read-out: MIC, Sensititre
Procedure: as §4

[14] = tested on: PAO1 mutant MIN4_RW01_3, pmrB(M292T); test: MIC, Sensititre custom plate; assay type: cell-based; settings: Pseudomonas aeruginosa, PAO1, read-out: MIC, Sensititre
Procedure: as §4

[15] = tested on: PAO1 mutant MIN4_RW01_4, pmrB(Y98N); test: MIC, Sensititre custom plate; assay type: cell-based; settings: Pseudomonas aeruginosa, PAO1, read-out: MIC, Sensititre
Procedure: as §4

[16] = tested on: PAO1 mutant MIN8_1, nalD(R3C), pilM(Q62X); test: MIC, Sensititre custom plate; assay type: cell-based; settings: Pseudomonas aeruginosa, PAO1, read-out: MIC, Sensititre
Procedure: as §4

[17] = tested on: PAO1 mutant MIN8_2, pilZ(nt18InsT); test: MIC, Sensititre custom plate; assay type: cell-based; settings: Pseudomonas aeruginosa, PAO1, read-out: MIC, Sensititre
Procedure: as §4

[18] = tested on: PAO1 mutant MIN8_3, pilZ(nt18InsT); test: MIC, Sensititre custom plate; assay type: cell-based; settings: Pseudomonas aeruginosa, PAO1, read-out: MIC, Sensititre
Procedure: as §4

[19] = tested on: PAO1 mutant MIN8_4, pilZ(nt18InsT); test: MIC, Sensititre custom plate; assay type: cell-based; settings: Pseudomonas aeruginosa, PAO1, read-out: MIC, Sensititre
Procedure: as §4

[20] = tested on: PAO1 mutant MIN1_RW01_4, pmrB(F124L); test: microbe, parasite or virus in culture; assay type: cell-based; settings: Pseudomonas aeruginosa, PAO1, read-out: MIC, Sensititre
Procedure: as §4

[21] = tested on: PAO1 mutant MIN4_RW01_2, pmrB(F124S); test: microbe, parasite or virus in culture; assay type: cell-based; settings: Pseudomonas aeruginosa, PAO1, read-out: MIC, Sensititre
Procedure: as §4

Row | Compound | MIC (P. aeruginosa 125A) [µg/mL] | MIC (P. aeruginosa 125B) [µg/mL] | MIC (P. aeruginosa 41A) [µg/mL] | MIC (P. aeruginosa 41B) [µg/mL] | MIC (P. aeruginosa PAO1) [µg/mL] | MIC (P. aeruginosa PAOUW) [µg/mL] | MIC (P. aeruginosa PAOUW∆oprF) [µg/mL] | MIC (P. aeruginosa PAOΔmexR) [µg/mL] | MIC (P. aeruginosa PAOΔmexZ) [µg/mL] | MIC (P. aeruginosa PAOΔoprM) [µg/mL] | MIC (P. aeruginosa PAO1, WT) [µg/mL] | MIC [1] [µg/mL] | MIC [2] [µg/mL] | MIC [3] [µg/mL] | MIC [4] [µg/mL] | MIC [5] [µg/mL] | MIC [6] [µg/mL] | MIC [7] [µg/mL] | MIC [8] [µg/mL] | MIC [9] [µg/mL] | further results
1 | CC(C)(O/N=C(\C(=O)N[C@@H]1C(=O)N2C(C(=O)[O-])=C(C[n+]3ccccc3)CS[C@H]12)c1csc(N)n1)C(=O)O [Ceftazidime, ceftazidime] | 8 | 4 | 4 | 8 | 2 | 2 | 2 | 4 | 4 | 2 | 1 to 2 (≈ 1.83 to 3.66 µM) | 4 (≈ 7.32 µM) | 4 (≈ 7.32 µM) | 2 (≈ 3.66 µM) | 4 (≈ 7.32 µM) | ≤ 1 | 4 (≈ 7.32 µM) | ≤ 1 | 2 (≈ 3.66 µM) | 2 (≈ 3.66 µM) | MIC [10]: 2 µg/mL (≈ 3.66 µM); MIC [11]: 2 µg/mL (≈ 3.66 µM); MIC [12]: 4 µg/mL (≈ 7.32 µM); MIC [13]: 4 µg/mL (≈ 7.32 µM); MIC [14]: ≤ 1 µg/mL; MIC [15]: ≤ 1 µg/mL; MIC [16]: 4 µg/mL (≈ 7.32 µM); MIC [17]: 4 µg/mL (≈ 7.32 µM); MIC [18]: 4 µg/mL (≈ 7.32 µM); MIC [19]: 4 µg/mL (≈ 7.32 µM); MIC [20]: 2 µg/mL (≈ 3.66 µM); MIC [21]: ≤ 1 µg/mL
2 | C[C@@H](O)[C@H]1C(=O)N2C(C(=O)O)=C(SCCN=CN)C[C@H]12 [Imipenem, imipenem] | 2 | 2 | 2 | 16 | 2 | 8 | 2 | 0.5 | 2 | 2 | 1 to 2 (≈ 3.34 to 6.68 µM) | 2 to 4 (≈ 6.68 to 13.4 µM) | 2 (≈ 6.68 µM) | 1 (≈ 3.34 µM) | 2 (≈ 6.68 µM) | 2 (≈ 6.68 µM) | 1 (≈ 3.34 µM) | 2 (≈ 6.68 µM) | 4 (≈ 13.4 µM) | 2 (≈ 6.68 µM) | MIC [10]: 8 µg/mL (≈ 26.7 µM); MIC [11]: 2 µg/mL (≈ 6.68 µM); MIC [12]: 2 µg/mL (≈ 6.68 µM); MIC [13]: 2 to 4 µg/mL (≈ 6.68 to 13.4 µM); MIC [14]: 16 µg/mL (≈ 53.4 µM); MIC [15]: 4 µg/mL (≈ 13.4 µM); MIC [16]: 2 µg/mL (≈ 6.68 µM); MIC [17]: 2 µg/mL (≈ 6.68 µM); MIC [18]: 2 µg/mL (≈ 6.68 µM); MIC [19]: 2 µg/mL (≈ 6.68 µM); MIC [20]: 2 µg/mL (≈ 6.68 µM); MIC [21]: 2 µg/mL (≈ 6.68 µM)
